Data published in the NIST ThermoML archive (doi:10.1021/acs.jced.6b00536).
Several values for one entry are separate records, joined by “and”; a condition that tells them apart may be missing. Identical values can stand only once.

Settings: Gas, Frequency=0.05 MHz, Single path-length method

FC(F)(F)C(F)(F)C(F)(F)F [octafluoropropane]
Settings	speed of sound
287.9 K, 253.6 kPa	109.81 m/s
287.9 K, 261.1 kPa	109.59 m/s
287.9 K, 284.7 kPa	108.91 m/s
293.2 K, 73.1 kPa	115.72 m/s
293.2 K, 84.2 kPa	115.45 m/s
293.2 K, 84.3 kPa	115.46 m/s
293.2 K, 94.5 kPa	115.2 m/s
293.2 K, 94.6 kPa	115.21 m/s
293.2 K, 105.6 kPa	114.93 m/s and 114.94 m/s
293.2 K, 120.1 kPa	114.57 m/s
293.2 K, 139.6 kPa	114.1 m/s
293.2 K, 169.6 kPa	113.36 m/s
293.2 K, 198.9 kPa	112.61 m/s
293.2 K, 231.3 kPa	111.79 m/s
293.2 K, 231.4 kPa	111.79 m/s
293.2 K, 258.8 kPa	111.04 m/s
293.2 K, 258.9 kPa	111.05 m/s
293.2 K, 266.6 kPa	110.85 m/s
293.2 K, 266.7 kPa	110.86 m/s
293.2 K, 290.7 kPa	110.18 m/s
293.2 K, 290.8 kPa	110.19 m/s
298.4 K, 74.5 kPa	116.78 m/s
298.4 K, 85.8 kPa	116.53 m/s
298.4 K, 96.3 kPa	116.29 m/s
298.4 K, 107.6 kPa	116.05 m/s
298.4 K, 122.4 kPa	115.7 m/s
298.4 K, 142.2 kPa	115.21 m/s
298.4 K, 172.8 kPa	114.5 m/s
298.4 K, 202.9 kPa	113.8 m/s
298.4 K, 235.9 kPa	112.97 m/s
298.4 K, 264.2 kPa	112.28 m/s
298.4 K, 272.1 kPa	112.08 m/s
298.4 K, 296.8 kPa	111.46 m/s
303.7 K, 75.8 kPa	117.86 m/s
303.7 K, 87.4 kPa	117.61 m/s
303.7 K, 98.1 kPa	117.39 m/s
303.7 K, 109.5 kPa	117.14 m/s
303.7 K, 124.7 kPa	116.78 m/s
303.7 K, 144.9 kPa	116.33 m/s
303.7 K, 176.2 kPa	115.66 m/s
303.7 K, 206.7 kPa	114.96 m/s
303.7 K, 240.6 kPa	114.17 m/s
303.7 K, 269.4 kPa	113.49 m/s
303.7 K, 277.6 kPa	113.32 m/s
308.9 K, 77.1 kPa	118.9 m/s
308.9 K, 88.9 kPa	118.66 m/s
308.9 K, 99.8 kPa	118.44 m/s
308.9 K, 111.5 kPa	118.19 m/s
308.9 K, 127 kPa	117.87 m/s
308.9 K, 147.5 kPa	117.44 m/s
308.9 K, 179.4 kPa	116.75 m/s
308.9 K, 210.6 kPa	116.08 m/s
308.9 K, 245.2 kPa	115.33 m/s
308.9 K, 274.7 kPa	114.68 m/s
308.9 K, 283 kPa	114.5 m/s
314.1 K, 78.5 kPa	119.93 m/s
314.1 K, 90.4 kPa	119.69 m/s
314.1 K, 101.6 kPa	119.47 m/s
314.1 K, 113.4 kPa	119.24 m/s
314.1 K, 129.2 kPa	118.93 m/s
314.1 K, 150.2 kPa	118.52 m/s
314.1 K, 182.7 kPa	117.85 m/s
314.1 K, 214.5 kPa	117.21 m/s
314.1 K, 249.8 kPa	116.47 m/s
314.1 K, 279.9 kPa	115.84 m/s
314.1 K, 288.4 kPa	115.67 m/s
319.4 K, 79.8 kPa	120.96 m/s
319.4 K, 92 kPa	120.74 m/s
319.4 K, 103.3 kPa	120.52 m/s
319.4 K, 115.4 kPa	120.29 m/s
319.4 K, 131.4 kPa	119.98 m/s
319.4 K, 152.8 kPa	119.58 m/s
319.4 K, 185.9 kPa	118.95 m/s
319.4 K, 218.4 kPa	118.33 m/s
319.4 K, 254.4 kPa	117.62 m/s
319.4 K, 285.1 kPa	117.02 m/s
319.4 K, 293.8 kPa	116.85 m/s
324.6 K, 81.2 kPa	121.98 m/s
324.6 K, 93.5 kPa	121.75 m/s
324.6 K, 105.1 kPa	121.56 m/s
324.6 K, 117.4 kPa	121.32 m/s
324.6 K, 133.7 kPa	121.03 m/s
324.6 K, 155.4 kPa	120.64 m/s
324.6 K, 189.2 kPa	120.02 m/s
324.6 K, 222.3 kPa	119.43 m/s
324.6 K, 259 kPa	118.74 m/s
324.6 K, 290.3 kPa	118.16 m/s
324.6 K, 299.2 kPa	117.99 m/s
